Reference: paper PMC9555642 (PLoS ONE, 2022)

Key:
[1] = target: T1, HDAC5 (Homo sapiens, UniProt Q9UQL6); assay: HDAC enzymatic activity (Eurofins); format: biochemical; conditions: Class IIA; ACY-1083 mean of two separate measurements, Ricolinostat and Tubastatin A one measurement
T1 construct: purchased Eurofins Pharma Discovery Services 2494

[2] = tested on: COPD HBEC ALI cultures; assay: Western blot of membrane protein from ALI cell cultures; format: cell-based, human; conditions: 10 μM, TNF-challenged, four COPD donors, trend observed
Protocol: For extraction of membrane and cytosol proteins the cells were lysed according to the Mem-PER Plus Membrane Protein Kit protocol (#89842, ThermoFisher Scientific). The supernatants were kept frozen in −80°C until total protein quantification. Quantification of total protein in the lysates was done using Pierce BCA Protein Assay Kit (#23227, Thermo Scientific) following the manufacturer´s instructions. Lysates containing 8 μg total protein were mixed with NuPAGE LDS Sample buffer 4x (NP007, Invitrogen), NuPAGE Sample Reducing Agent 10x (NP004, Invitrogen) and deionized water and then heated for ten minutes at 70°C. The samples were loaded onto NuPAGE 4–12% Bis-Tris Gels (NP0335, Invitrogen) and run at 120V for 100 minutes in NuPAGE MOPS SDS Running buffer (NP0001, Invitrogen). The proteins were transferred to nitrocellulose membranes (LC2001, Invitrogen) at 35 mA overnight using NuPAGE Transfer buffer (NP0006, Invitrogen) supplemented with 20% methanol. The membranes were stained with Revert Total Protein Stain (926–11011, LI-COR Biosciences) for five minutes, washed and then imaged in the 700 nm channel using Odyssey CLX imaging system (LI-COR Biosciences). To correct for variation in loading the total signal intensity of all proteins in each lane were used for normalization. An inter-membrane control sample was loaded to all gels to assure there were no differences due to methodology between the blots. The stain was removed with Revert Destaining Solution (926–11013, LI-COR Biosciences) and the membranes were blocked in Intercept (TBS) Blocking Buffer (927–60001, LI-COR Biosciences) for one hour on a shaker. […] After a final wash, three times for ten minutes in TBS-T, the fluorescent signals were detected using the Odyssey CLX imaging system and the signals were analysed using Image Studio software (v4.0, LI-COR Biosciences).

[3] = tested on: Haemophilus influenzae; assay: Pilot test of bactericidal effect, bacteria in media; format: cell-based; conditions: bacteria suspended in media incubated for one hour with ACY-1083, pilot experiment

T1 sequence (Q9UQL6 whole entry): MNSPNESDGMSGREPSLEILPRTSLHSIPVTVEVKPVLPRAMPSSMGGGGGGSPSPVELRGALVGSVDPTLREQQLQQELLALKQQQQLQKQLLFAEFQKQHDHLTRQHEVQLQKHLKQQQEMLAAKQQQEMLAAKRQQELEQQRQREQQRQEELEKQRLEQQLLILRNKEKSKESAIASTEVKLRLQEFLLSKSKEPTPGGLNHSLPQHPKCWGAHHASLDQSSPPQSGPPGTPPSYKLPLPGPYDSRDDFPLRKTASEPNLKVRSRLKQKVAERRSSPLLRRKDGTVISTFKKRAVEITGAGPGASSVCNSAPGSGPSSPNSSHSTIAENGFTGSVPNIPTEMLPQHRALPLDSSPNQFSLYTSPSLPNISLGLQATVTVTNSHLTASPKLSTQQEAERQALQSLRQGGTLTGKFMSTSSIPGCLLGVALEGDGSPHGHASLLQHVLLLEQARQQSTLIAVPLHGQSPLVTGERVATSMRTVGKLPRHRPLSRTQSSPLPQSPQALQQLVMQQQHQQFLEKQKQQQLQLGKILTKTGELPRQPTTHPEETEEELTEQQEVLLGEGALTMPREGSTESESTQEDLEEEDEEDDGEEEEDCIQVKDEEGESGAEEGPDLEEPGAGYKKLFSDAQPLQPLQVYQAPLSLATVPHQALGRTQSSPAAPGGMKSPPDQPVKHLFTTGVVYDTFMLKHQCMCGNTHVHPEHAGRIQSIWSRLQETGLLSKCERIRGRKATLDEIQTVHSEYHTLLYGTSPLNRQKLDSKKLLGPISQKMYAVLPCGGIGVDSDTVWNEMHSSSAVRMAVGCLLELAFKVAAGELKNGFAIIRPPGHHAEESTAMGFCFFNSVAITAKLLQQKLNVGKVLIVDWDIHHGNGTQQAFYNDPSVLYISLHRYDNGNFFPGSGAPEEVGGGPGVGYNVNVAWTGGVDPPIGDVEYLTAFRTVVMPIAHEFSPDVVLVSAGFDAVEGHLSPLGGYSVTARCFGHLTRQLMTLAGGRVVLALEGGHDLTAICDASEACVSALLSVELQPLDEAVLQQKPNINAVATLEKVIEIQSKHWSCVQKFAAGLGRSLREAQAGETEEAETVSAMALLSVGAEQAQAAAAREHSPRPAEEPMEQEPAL

ACY-1083
IC50 [1]: 4.17 µM | E-cadherin level in membrane fraction [2]: not significantly higher | Occludin level in membrane fraction [2]: not significantly higher | β-catenin level in membrane fraction [2]: not significantly higher | bactericidal effect (bacterial counts) [3]: no effect on bacterial counts
